Assay results as given in article PMC10095950, “Development of Cell Permeable NanoBRET Probes for the Measurement of PLK1 Target Engagement in Live Cells” (Molecules, 2023).
Where two headings read alike, the source gives them in different places.

Tests used:
[1] = tested on: a range of cancer cell lines; design: method as in as in column Ref. of Table 1 ([5]-[8],[14],[19]-[21]); settings: ref as in Table 1 ([5]-[8],[14],[19]-[21]), read-out: Reported Cell Proliferation IC50; cited from earlier work
PLK1 = settings: ref as in Table 1 ([5],[6],[8],[14],[19],[20],[21]); read-out: Reported Enzyme Inhibition IC50 PLK1; cited from earlier work
human PLK2 (NLuc-PLK2) = target: T1, human PLK2 (NLuc-PLK2) (Homo sapiens, UniProt Q9NYY3); assay: PLK2 NanoBRET target engagement assay (NLuc-PLK2) in live HEK293 cells; format: cell-based; settings: HEK293, probe 11 1.0 µM, 2 h; average of two technical replicates ±15%
T1 construct: ORFs corresponding to UniProt isoform 1 (PLK1: P53350-1, PLK2: Q9NYY3-1, and PLK3: Q9H4B4-1); host or cells: HEK293
Experimental: (§1) HEK293 cells (ATCC) were cultured in DMEM (Gibco) + 10% FBS (Seradigm) with incubation in a humidified 37 °C/5% CO2 incubator. N- or C-terminal NLuc/PLK fusions were encoded in pFN31K expression vectors (Promega), including flexible Gly-Ser-Ser-Gly linkers between NLuc and ORFs corresponding to UniProt isoform 1 (PLK1: P53350-1, PLK2: Q9NYY3-1, and PLK3: Q9H4B4-1). Carrier DNA was encoded in pGEM-3Z vectors (Promega). For cellular BRET target engagement experiments, HEK293 cells were transfected with NLuc/PLK fusion constructs using FuGENE HD (Promega) according to the manufacturer’s protocol. Briefly, NLuc/PLK fusion constructs were diluted into Transfection Carrier DNA (Promega) at a mass ratio of 1:9 (mass/mass), after which FuGENE HD was added at a ratio of 1:3 (µg DNA: µL FuGENE HD). One part (vol) of FuGENE HD complexes thus formed was combined with 20 parts (vol) of HEK293 cells suspended at a density of 2 × 10^5 per mL, followed by incubation in a humidified 37 °C/5% CO2 incubator for 20 hr.
(§2) To test BRET probes 10 and 11 against PLK1, HEK293 adherent cells were incubated with either NLuc fused to the N-terminus of PLK1 (NLuc-PLK1) or the C-terminus of PLK1 (PLK1-NLuc) using 1 µM of the BRET probe, and mBRET units were measured. […] NLuc-PLK2 and NLuc-PLK3 were tested with both probes 10 and 11 using the same protocol.

human PLK3 (NLuc-PLK3) = target: T2, human PLK3 (NLuc-PLK3) (Homo sapiens, UniProt Q9H4B4); assay: PLK3 NanoBRET target engagement assay (NLuc-PLK3) in live HEK293 cells; format: cell-based; settings: HEK293, probe 11 1.0 µM, 2 h; average of two technical replicates ±15%
T2 construct: ORFs corresponding to UniProt isoform 1 (PLK1: P53350-1, PLK2: Q9NYY3-1, and PLK3: Q9H4B4-1); host or cells: HEK293
Experimental: as §1, §2

human PLK1 (NLuc-PLK1) = target: T3, human PLK1 (NLuc-PLK1) (Homo sapiens, UniProt P53350); assay: PLK1 NanoBRET target engagement assay (NLuc-PLK1, N-terminal fusion) in live HEK293 cells; format: cell-based
T3 construct: plasmid DNAs encoding N- and C-terminal fusions of full-length PLK1 with NLuc; host or cells: HEK293
Experimental: as §1, with “Briefly, NLuc/PLK fusion constructs were diluted into Transfection Carrier DNA (Promega) at a mass ratio of 1:9 (mass/mass), after which FuGENE HD was added at a ratio of 1:3 (µg DNA: µL FuGENE HD).” left out
as §2
To estimate the half-maximal effective concentration (EC50) of probe 11 to PLK1 in cells, adherent HEK293 cells in a 96-well plate expressing the NLuc-PLK1 fusion protein were mixed with an increasing concentration of BRET probe 11. The resulting BRET ratio was fitted to the sigmoidal 4-parameter dose–response curve using Prism 9.0 (GraphPad, Boston MA, USA).

PLK1 (PLK1-NLuc) = target: T4, PLK1 (PLK1-NLuc) (Homo sapiens, UniProt P53350); assay: BRET probe evaluation with NLuc fused to the C-terminus of PLK1 (PLK1-NLuc) in HEK293 cells; format: cell-based; settings: 1 µM probe, PLK1-NLuc (C-terminal fusion), adherent HEK293 cells
T4 construct: plasmid DNAs encoding N- and C-terminal fusions of full-length PLK1 with NLuc; host or cells: HEK293
Experimental: as §1
To test BRET probes 10 and 11 against PLK1, HEK293 adherent cells were incubated with either NLuc fused to the N-terminus of PLK1 (NLuc-PLK1) or the C-terminus of PLK1 (PLK1-NLuc) using 1 µM of the BRET probe, and mBRET units were measured. The combination with the highest mBRET units was selected for further processing. […]

T3 sequence (P53350 whole entry, the tested form may be a part): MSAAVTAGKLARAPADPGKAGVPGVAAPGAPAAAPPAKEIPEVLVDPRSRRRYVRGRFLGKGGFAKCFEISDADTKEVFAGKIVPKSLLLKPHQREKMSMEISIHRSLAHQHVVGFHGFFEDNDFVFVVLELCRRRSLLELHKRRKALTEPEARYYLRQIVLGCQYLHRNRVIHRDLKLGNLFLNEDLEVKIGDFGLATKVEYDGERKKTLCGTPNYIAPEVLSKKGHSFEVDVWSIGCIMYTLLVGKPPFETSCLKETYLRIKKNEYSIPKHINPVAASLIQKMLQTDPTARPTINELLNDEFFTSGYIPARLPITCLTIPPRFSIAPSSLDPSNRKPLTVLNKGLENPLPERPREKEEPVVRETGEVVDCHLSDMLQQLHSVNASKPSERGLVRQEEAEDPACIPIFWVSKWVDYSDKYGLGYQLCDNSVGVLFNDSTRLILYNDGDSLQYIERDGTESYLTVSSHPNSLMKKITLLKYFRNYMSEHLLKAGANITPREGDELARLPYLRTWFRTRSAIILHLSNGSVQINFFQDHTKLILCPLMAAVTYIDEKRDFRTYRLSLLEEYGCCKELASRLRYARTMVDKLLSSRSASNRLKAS
T1 sequence (Q9NYY3 whole entry, canonical isoform): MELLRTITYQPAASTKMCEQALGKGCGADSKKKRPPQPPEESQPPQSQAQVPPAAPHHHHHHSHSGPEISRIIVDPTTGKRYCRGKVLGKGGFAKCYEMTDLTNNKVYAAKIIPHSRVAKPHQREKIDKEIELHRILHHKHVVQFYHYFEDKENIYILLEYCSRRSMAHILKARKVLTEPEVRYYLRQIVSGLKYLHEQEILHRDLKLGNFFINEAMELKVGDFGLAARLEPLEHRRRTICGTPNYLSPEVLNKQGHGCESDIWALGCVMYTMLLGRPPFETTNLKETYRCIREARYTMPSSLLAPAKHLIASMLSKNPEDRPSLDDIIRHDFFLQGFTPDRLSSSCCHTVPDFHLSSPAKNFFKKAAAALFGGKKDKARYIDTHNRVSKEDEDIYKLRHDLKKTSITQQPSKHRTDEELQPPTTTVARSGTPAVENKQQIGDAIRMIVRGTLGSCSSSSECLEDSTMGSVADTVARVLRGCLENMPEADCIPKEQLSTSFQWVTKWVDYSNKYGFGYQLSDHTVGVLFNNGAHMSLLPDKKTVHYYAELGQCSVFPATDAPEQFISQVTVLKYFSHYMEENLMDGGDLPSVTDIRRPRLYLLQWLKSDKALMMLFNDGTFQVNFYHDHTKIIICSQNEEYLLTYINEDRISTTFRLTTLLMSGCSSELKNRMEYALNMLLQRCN
T2 sequence (Q9H4B4 whole entry, canonical isoform): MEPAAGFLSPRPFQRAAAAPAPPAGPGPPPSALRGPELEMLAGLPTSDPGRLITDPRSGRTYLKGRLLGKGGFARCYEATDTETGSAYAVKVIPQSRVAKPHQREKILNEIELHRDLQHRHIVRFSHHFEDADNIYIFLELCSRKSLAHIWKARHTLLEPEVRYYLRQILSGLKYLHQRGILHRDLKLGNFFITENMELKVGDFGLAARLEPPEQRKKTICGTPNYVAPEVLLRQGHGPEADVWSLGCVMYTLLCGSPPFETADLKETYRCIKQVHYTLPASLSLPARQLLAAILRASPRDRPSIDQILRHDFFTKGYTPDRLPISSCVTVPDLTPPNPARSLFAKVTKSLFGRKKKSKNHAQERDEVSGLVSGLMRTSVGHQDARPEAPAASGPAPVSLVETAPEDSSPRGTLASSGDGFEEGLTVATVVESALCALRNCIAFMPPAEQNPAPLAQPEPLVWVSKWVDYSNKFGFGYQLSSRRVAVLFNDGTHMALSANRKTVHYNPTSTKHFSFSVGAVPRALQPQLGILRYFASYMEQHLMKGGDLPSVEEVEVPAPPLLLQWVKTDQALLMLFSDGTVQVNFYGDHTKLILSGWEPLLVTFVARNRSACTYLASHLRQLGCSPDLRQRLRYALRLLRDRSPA
T4 sequence (P53350 whole entry, the tested form may be a part): as the sequence (P53350 whole entry, the tested form may be a part) above

Which IC50 [1] does the source give for `C[C@@H](Oc1cc(-n2cnc3ccc(CN4CCN(C)CC4)cc32)sc1C(N)=O)c1ccccc1C(F)(F)F` [GSK461364] here?
The IC50 was 10 to 100 nM.

Which IC50 (PLK1) does the source give for `Cc1ncc(CCCN(C)C)cc1Nc1ncc2c(n1)-c1ccc(C(F)(F)F)cc1NC(=S)C2` [MLN0905] here?
Its IC50 is 2 nM.

With `CN1CCN(c2ccc(OC(F)(F)F)c(Nc3ncc4c(n3)-c3c(c(C(N)=O)nn3CCO)CC4)c2)CC1` [Onvansertib] as the compound, how does the IC50 (PLK1) read?
The IC50 was […].

And the IC50 [1]?
The IC50 was 42 nM.

Which IC50 (human PLK2 (NLuc-PLK2)) does the source give for `COc1cc(C(=O)NC2CCN(C)CC2)ccc1Nc1ncc2c(n1)N(C1CCCC1)CC(F)(F)C(=O)N2C` [Ro3280] here?
The IC50 was 45 nM.

What about the IC50 (human PLK3 (NLuc-PLK3)) of the same compound?
The IC50 was 180 nM.

What about the IC50 [1] of the same compound?
The IC50 was 6 to 45 nM.

With `CCC1(F)CN(C2CCCC2)c2nc(Nc3ccc(C(=O)NC4CCN(C)CC4)cc3OC)ncc2N(C)C1=O` (stereo not drawn) [TPKI-26] as the compound, how does the IC50 (human PLK2 (NLuc-PLK2)) read?
The IC50 was 64 nM.

And the IC50 (human PLK3 (NLuc-PLK3))?
The IC50 was 1700 nM.

And the IC50 [1]?
Its IC50 is 5 nM.

For `CC[C@@H]1C(=O)N(C)c2cnc(Nc3ccc(C(=O)N[C@H]4CC[C@H](N5CCN(CC6CC6)CC5)CC4)cc3OC)nc2N1C(C)C` [Volasertib], which IC50 (human PLK1 (NLuc-PLK1); HEK293, probe 11 0.2 µM, 2 h, average of two technical replicates ±15%, read-out: NanoBRET Target Engagement IC50 PLK1) is on record?
The IC50 was 18 nM.

And the IC50 (human PLK2 (NLuc-PLK2))?
The IC50 was 23 nM.

And the IC50 (human PLK3 (NLuc-PLK3))?
Its IC50 is 59 nM.

And the IC50 (PLK1)?
Its IC50 is 0.87 nM.

What about the IC50 [1] of the same compound?
The IC50 was 11 to 37 nM.

Which results are given for `CC[C@@H]1C(=O)N(C)c2cnc(Nc3ccc(C(=O)NC4CCNCC4)cc3OC)nc2N1C(C)C` [compound 1, (R)-4-((7-ethyl-8-isopropyl-5-methyl-6-oxo-5,6,7,8-tetrahydropteridin-2-yl)amino)-3-methoxy-N-(piperidin-4-yl)benzamide]?
IC50 (human PLK1 (NLuc-PLK1); Probe 11 Conc. 0.1 μM, NLuc-PLK1, ADH format, read-out: apparent IC50): 203 nM; IC50 (human PLK1 (NLuc-PLK1); Probe 11 Conc. 0.2 μM, NLuc-PLK1, ADH format, read-out: apparent IC50): 228 nM; IC50 (human PLK1 (NLuc-PLK1); Probe 11 Conc. 0.4 μM, NLuc-PLK1, ADH format, read-out: apparent IC50): 246 nM; IC50 (human PLK1 (NLuc-PLK1); Probe 11 Conc. 0.6 μM, NLuc-PLK1, ADH format, read-out: apparent IC50): 285 nM; IC50 (human PLK1 (NLuc-PLK1); Probe 11 Conc. 0.8 μM, NLuc-PLK1, ADH format, read-out: apparent IC50): 291 nM; IC50 (human PLK1 (NLuc-PLK1); Probe 11 Conc. 1 μM, NLuc-PLK1, ADH format, read-out: apparent IC50): 316 nM; Kd (human PLK1 (NLuc-PLK1); linearized Cheng–Prusoff analysis, y-intercept of IC50 vs probe 11 concentration, live HEK293 cells, read-out: apparent KD for intracellular target engagement of PLK1): 120 nM

What does the source list for `CC[C@@H]1C(=O)N(C)c2cnc(Nc3ccc(C(=O)NC4CCN(C(=O)CCc5ccc6n5[B-](F)(F)[N+]5=C(c7ccc[nH]7)C=CC5=C6)CC4)cc3OC)nc2N1C(C)C` [probe 10, (R)-N-(1-(3-(5,5-difluoro-7-(1H-pyrrol-2-yl)-5H-5^λ,6^λ-dipyrrolo[1,2-c:2’,1’-f][1-3]diazaborinin-3-yl)propanoyl)piperidin-4-yl)-4-((7-ethyl-8-isopropyl-5-methyl-6-oxo-5,6,7,8-tetrahydropteridin-2-yl)amino)-3-methoxybenzamide]?
BRET ratio (human PLK1 (NLuc-PLK1); 1 µM probe, NLuc-PLK1, adherent HEK293 cells): ~ 39; BRET ratio (PLK1 (PLK1-NLuc)): ~ 15
